We go through 16 compounds from patent US9364002B2, “Plant volatiles” (Keygene N.V., priority 2007, dated 2016).

For test [1], the system named is B. tabaci. Briefly: Statistical correlation (stepwise-linear regression, MANOVA) of headspace volatiles with whitefly repellence ranking. Details: species or system Bemisia tabaci. The settings on record: for compounds responsible for repellency or attraction of whitefly: linked to S. pennelli, S. habrochaites or cultivated S. lycopersicum headspace; for Effect on insects: volatiles of tomato headspace correlated to whitefly repellency/attraction score by linear regression; for association: semiochemicals associated to B. tabaci repellence or attraction. An excerpt: In a large experiment (see Example 2), the headspace of 16 wild tomato accessions and 5 cultivated tomato lines were sampled and analyzed (6 repeats). In total 51 compounds were identified to be present in the captured headspace. Furthermore, the level of repellency/attraction of each of the 21 tomato accessions was established in free choice bioassays with B. tabaci (biotype Q), using a ranking scale of 1-7 (1=highest repellency to 7=lowest repellency). Next, the identified volatile compounds were correlated to the repellency/attraction score of each tomato accession through a linear regression analysis.
The headspace of 16 wild tomatoes and 5 cultivated tomatoes (Table 4) was collected. Undisturbed 3-weeks old tomato plants were transferred to 40-L desiccators. The headspace was sampled during 24 h including a 16 h light period, by trapping of the volatile components as described above. […] Each accession was sampled 6 times.
In a statistical analysis the correlation between the identified components of the tomato headspace and the ranking of whitefly repellence measured in the bioassays was made. Using two approaches, a stepwise-linear regression analysis and a MANOVA, 8 volatiles were identified to be correlated to whitefly repellence, whereas 24 other volatile compounds were eliminated as non-relevant for repellency or attraction.

Test [2] deals with adult whiteflies B. tabaci. The settings on record: cited from earlier work.
The subject of test [3] is fourth instar larvae of Colorado potato beetle. The settings on record: cited from earlier work.
Test [4] concerns B. tabaci. As to the kind of experiment: Free-choice bioassay: headspace or pure volatiles added to one of four cv Moneymaker tomato plants. It counts as in vivo, Bemisia tabaci (biotype Q, Almeria population). The following applies: pure compound added to Moneymaker background. The protocol:
A population of Bemisia tabaci was collected at a common greenhouse in Santa Maria del Aguila (Almeria, Spain) in October 2005. By PCR analyses this population was identified to belong to the Q-biotype. The population was reared in a climate chamber (Temperature 28° C., 16 h light) on a mixture of tomato and cucumber plants. Preference of the insects for particular plants (treated or untreated/control-treated) was tested in free choice bioassays.
Free choice experiments with B. tabaci were carried out in a greenhouse compartment (28° C., RH 65%). Light was supplied by high-pressure sodium lamps (Hortilex Schréder SON-T PIA GP 600 W) with a radiation of 250 W/m^2. The preference behaviour of B. tabaci biotype Q (Almeria population) and biotype B (labculture Netherlands) was compared in bioassays with different wild tomatoes (LA1777, LA2560, GI1560) and S. lycopersicum cv Moneymaker). Plants were placed inside a plastic covered wooden tray (170×100×20 cm) filled with soil, at equal distance from each other. Two hundred adult whiteflies were captured, placed at 4° C. for five minutes and then released in the middle of the setup. Ten and 20 minutes after release, the number of whiteflies on each plant was recorded. Since no differential behaviour between B. tabaci B and Q was found, all further bioassays were done with the Almeria (Q) population.
For bioassays with headspace (total headspace or single compounds) four potted tomato plants (S. esculentum cv Moneymaker) were placed in a square setup at a distance of 50 cm. One hundred and fifty adult whiteflies were released and recorded as described above. To test the effect of selected headspace components on repellence, synthetic standards (FLUKA) were applied to either 10 filter-papers discs (Whatman, 25 mm diameter) or 10 rubber septa (Sigma Aldrich, Z167258). Prior to loading, the septa were placed in CH2Cl2 for 24 h and air-dried for 3 days (Heath et al., 1986). The paper discs or septa containing volatiles were attached to one of the four plants with metal wire. The position of the treated tomato was randomised. Five minutes after placing the volatiles on the plant, whiteflies were released. For each component at least 8 replications were carried out. Treatments were administered in a setup in which compounds were always added to the same plant in comparison to 3 plants with empty carriers. Prior to each assay with volatiles, the experiment was done with the 4 plants in an untreated setup, in the same position to allow comparison in the same background.
Host preference with and without manipulated headspace by B. tabaci was explored in free choice assays. In each setup four cultivated tomatoes (cv. Moneymaker) were tested as described earlier. For the bioassays with volatiles rubber septa (Sigma Aldrich Z167258) were extracted with CH2Cl2 for 24 hours and dried to the air for 3 days. The desired blend of volatiles was added to the rubber septa in 100 μl hexane. Bioassays with pure components, or mixtures of pure components were carried out as described above.

The test system of a further test is B. tabaci antennae. As to the kind of experiment: Electroantennography (EAG). Further details: species or system Bemisia tabaci. The settings on record: 10^-3 dilution in paraffin oil; response to paraffin oil subtracted. The method, then:
Electroantennography (EAG) was employed to confirm the responsiveness of the atennae to 10^−3 dilution in paraffin oil (Uvasol, Merck) of the chemicals described. Small pieces of filter paper (2 cm2; Schleicher & Schuell, Dassel, Germany) were soaked with 100 μl of the standard dilution or praffin oil only (control). The filter paper was inserted into a 10-ml glass syringe (Poulten & Graf GmbH, Wertheim, Germany). A reproducible stimulus was supplied by puffing 5 ml of air over the antenna (Schutz et al., 1999). The EAG response was recorded for each standard (10^−3) dilution. The response to paraffin oil was considered as a negative control and was subtracted from all the reported EAG measurements. The EAG response expressed as a potential difference across the electrodes (in mV) for the different pure chemicals is given in the right-hand column of Table 5.

Test [5] concerns pests of cut flowers (e.g. B. tabaci). The settings on record: fumigants at 10-20 mg/l, after 2-4 hours of exposure; cited from earlier work.

Consider `CC1=CC2C(CC1)C2(C)C` (stereo not drawn) [2-carene], for which, in the test on B. tabaci [1], the “compounds responsible for repellency or attraction of whitefly” value (“compounds responsible” for short) is “significantly correlated to the more attractive cultivated S. lycopersicum plants” and the Effect on insects result is reported as “Attractant”.

For `CCCCCCCCCCCC(C)=O` [2-tridecanone], the toxic effect result in test [2] is given as “toxic effect”.

`CCCCCCCCCC(C)=O` [2-undecanone]: the toxic effect entry in test [3] was “toxic effect”.

For `CC(C)=CCC[C@@H](C)[C@@H]1C=CC(C)=CC1` [7-epi zingiberene], the “effect on repellence/attractiveness of treated tomato plant (in words)” value (from here on “effect on repellence/attractiveness”) in the test on B. tabaci [4] was “clear repellent effect”. In addition, in the test on B. tabaci antennae, the “antennal response (EAG potential difference)” value came out at 2.3 mV. Moreover, in the test on B. tabaci [1], the “compounds responsible” value is reported as “more unattractive” and the association result was “repellence”.

With `CC1=CCC(C(C)C)C=C1` (stereo not drawn) [Alpha-phellandrene], the “effect on repellence/attractiveness” value in the test on B. tabaci [4] is “decreased tomato attractiveness significantly”. Also, the “antennal response (EAG potential difference)” value in the test on B. tabaci antennae was 2.2 mV. Besides, in the test with B. tabaci [1], the “compounds responsible” value is “repellent”, the association result is reported as “repellence” and the Effect on insects entry is recorded as “Repellent”.

On to `CC1=CC=C(C(C)C)CC1` [Alpha-terpinene], for which, in the test with B. tabaci [4], the “effect on repellence/attractiveness” value was “decreased tomato attractiveness significantly”. Further, the “antennal response (EAG potential difference)” value in the test with B. tabaci antennae came to 4.1 mV. Besides, in the test with B. tabaci [1], the “compounds responsible” value is recorded as “repellent”, the association result is “repellence” and the Effect on insects result is given as “Repellent”.

Take `CC12CCC(CC1)C(C)(C)O2` [Cineole]: the mortality result in test [5] is recorded as “caused mortality”.

Turning to `CC(C)=CCC[C@H](C)c1ccc(C)cc1` [S-curcumene], the “effect on repellence/attractiveness” value with B. tabaci [4] was “clear repellent effect”. Also, the “antennal response (EAG potential difference)” value with B. tabaci antennae was found to be 5.0 mV. Further, in the test with B. tabaci [1], the “compounds responsible” value is on record as “more unattractive” and the association entry is on record as “repellence”.

Take `CC(C)=CCCC(C)c1ccc(C)cc1` (stereo not drawn) [alpha-curcumene]: the Effect on insects entry with B. tabaci [1] is “Repellent”.

With `C=CC(=C)CCC=C(C)C` [beta-myrcene], in the test with B. tabaci [1], the “compounds responsible” value is listed as “repellent” and the Effect on insects result was “Repellent”.

As to `C=C1C=CC(C(C)C)CC1` (stereo not drawn) [beta-phellandrene], in the test on B. tabaci [1], the “compounds responsible” value is given as “significantly correlated to the more attractive cultivated S. lycopersicum plants” and the Effect on insects entry was “Attractant”.

Consider `CC1=CCC(C(C)C)=CC1` [gamma-terpinene], for which, in the test with B. tabaci [4], the “effect on repellence/attractiveness” value was “no significant behavioural effect”. Moreover, in the test on B. tabaci [1], the “compounds responsible” value was “repellent” and the Effect on insects result is “Repellent”.

`C=C(C)[C@H]1CC=C(C)CC1` [limonene]: in the test on B. tabaci [1], the “compounds responsible” value is given as “significantly correlated to the more attractive cultivated S. lycopersicum plants” and the Effect on insects result is on record as “Attractant”.

On to `Cc1ccc(C(C)C)cc1` [para-cymene], for which the “antennal response (EAG potential difference)” value in the test on B. tabaci antennae turned out to be 2.4 mV. In addition, in the test with B. tabaci [1], the “compounds responsible” value is recorded as “repellent”, the association result is on record as “repellence” and the Effect on insects entry is “Repellent”.

`C=CCc1ccc2c(c1)OCO2` [safrole]: the mortality result in test [5] is given as “caused mortality”.

As for `CC(C)=CCCC(C)[C@@H]1C=CC(C)=CC1` (stereo partly drawn) [zingiberene], the Effect on insects entry with B. tabaci [1] is reported as “Repellent”.
